Assay results reported in patent EP3727043B1 (Golden Gait Biotech, S.L., priority 2017, dated 2019).
Read-outs that look alike come from different tables or passages of the source.

Key:
[1] = system: patients with idiopathic PD and levodopa induced dyskinesias (LIDs)
Procedure: Efficacy was measured with the Unified Dyskinesia Rating Scale (UDysRS), a semi- quantitative assessment, FDA-validated instrument to assess gait, balance and dyskinesia in PD. […] Dosing was begun at 1 mg every 6 hours to a final dose of 24 mg per day.
All hypotheses were tested using 2-sided tests with alpha set at the 0.050 level of significance. In general, efficacy data were summarized by treatment group, and safety data were summarized by treatment group and overall. In all analyses, assumptions such as normality and homogeneity of variance were examined prior to conducting the proposed parametric statistical procedures. Categorical variables were analyzed by Fisher's exact 2- tailed test and continuous variables were tested under 2-sample t-tests. The equality of variances was examined using an F-test before applying the 2-sample t-test.

[2] = system: patients with idiopathic PD and levodopa induced dyskinesias (LIDs); remark: listed apart in the source
Procedure: At the time the study was performed (2009), there was no FDA accepted instrument for measuring treatment efficacy for LIDs. Therefore, several secondary objectives were utilized to assess efficacy including the Unified Dyskinesia Rating Scale (UDysRS).
A total of 65 male and female subjects with idiopathic PD with LIDs were randomized in the study. The study consisted of 4 phases (FIG. 6A): screening phase (up to 3 weeks), double-blind treatment phase (10 weeks), taper phase (2 weeks), and follow-up phase (2 weeks). The approximate duration of the study for each subject was 17 weeks. […] During the double-blind treatment phase, dosing was begun at Visit 0 at 1 mg every 6 hours (total daily dose [TDD] = 4 mg/day) and escalated upwards at 2-week intervals as follows: 2 mg every 6 hours (TDD = 8 mg/day) at Visit 1 (Week 2); 4 mg every 6 hours (TDD = 16 mg/day) at Visit 2 (Week 4); 6 mg every 6 hours (TDD = 24 mg/day) at Visit 3 (Week 6). Subjects were maintained on 24 mg/day for 4 weeks. The subsequent taper phase (2 weeks total), beginning at Visit 4 (Week 10), consisted of 9 days of drug taper and 5 days off drug prior to Visit 5 (final safety visit). […] Ondansetron was provided by the sponsor and dispensed with each dose escalation step with instructions to use it for nausea and vomiting only during the first 4 days following dose initiation or escalation. […] No other dose down-titration was allowed. Table 5. Dose Escalation Schedule
A total of 65 patients with idiopathic PD and levodopa induced dyskinesias (LIDs) were randomized. Patients were required to have a diagnosis of idiopathic PD and be within a Hoehn & Yahr Stage II - IV while in a peak "ON" state(levodopa in a therapeutic range). They had to have moderate to severely disabling LIDs for at least 25% of the waking day, as determined by Questions 32 and 33 in Part II of the UPDRS and a Mini-Mental State Examination (MMSE) score of ≥26. Patients with atypical Parkinson disorders, prior deep brain stimulation (DBS), unstable angina, a history of ventricular arrhythmias, or active peptic ulcer or a history of schizophrenia, schizoaffective disorder, or bipolar disease were excluded. Patients who actively smoked were also excluded. Table 9: Demographics
The drug, or a placebo identical in appearance and packaging, was administered orally 4 times a day in a blinded fashion. Patients were examined while in an "ON" state, when levodopa was in a therapeutic range. During the treatment phase, dosing was begun at 1 mg every 6 hours (total daily dose=4 mg/day) and escalated upwards at 2-week intervals as follows: 2 mg every 6 hours at Visit 1; 4 mg every 6 hours at Visit 2; 6 mg every 6 hours at Visit 3. Patients were maintained on 24 mg/day for 4 weeks. All patients, study site personnel, raters and the sponsor were blinded to treatment assignment.
The original UPDRS scale was used. […] In the UPDRS Part II, Question 13 is on Falling unrelated to Freezing. […] In Part II, Question 14 is on Freezing when Walking. This is a 5-point item and has two variables freezing and falls. […] Questions 13 and 14 were compared separately (Table 11). […] Table 10: UPDRS Part II (ADL), UPDRS Part III (Motor Examination)
LIDs were assessed by the UDysRS, the main measure of LIDs (Table 12). […] The study was conducted in accordance with the Declaration of Helsinki and Good Clinical Practice Guidelines. All sites received approval from an institutional review board and written informed consent was obtained from each patient prior to participation. Table 12. Unified Dyskinesia Rating Scale (UDysRS)
All hypotheses were tested using 2-sided tests with alpha set at the 0.050 level of significance. In general, efficacy data were summarized by treatment group, and safety data were summarized by treatment group and overall.

[3] = oral administration of capsules
[4] = clinical; conditions: human, plasma, po
[5] = Baseline to Week 10, 30 NP002 patients
[6] = Baseline to Week 10, minus = improvement, 30 NP002 patients
[7] = Baseline to Week 10, plus = worsening, 30 NP002 patients
[8] = NP002 Patients Baseline (before treatment)
[9] = NP002 patients at 10 Weeks, up to 24 mg/day orally
[10] = NP002 patients at Baseline (before treatment)

## CN1CCCC1c1cccnc1.O=C(O)C(O)C(O)C(=O)O (centres unmarked) [NP002, Nicotine Bitartrate]
[1]; N=35
  Adverse Event: Constipation: 5 (14.3) Number (%)
  Adverse Event: Diarrhea: 2 (5.7) Number (%)
  Adverse Event: Dizziness: 7 (20.0) Number (%)
  Adverse Event: Fatigue: 3 (8.6) Number (%)
  Adverse Event: Headache: 2 (5.7) Number (%)
  Adverse Event: Insomnia: 0 (0.0) Number (%)
  Adverse Event: Nausea: 13 (37.1) Number (%)
  Adverse Event: Nightmare: 2 (5.7) Number (%)
  Adverse Event: Pain: 3 (8.6) Number (%)
  Adverse Event: Pain in extremity: 2 (5.7) Number (%)
  Adverse Event: Tremor: 2 (5.7) Number (%)
  Adverse Event: Vomiting: 4 (11.4) Number (%)
  Number (%) of subject with any AE: 26 (74.3) Number (%)
[1]; compliance check
  Serum cotinine levels: paralleled dosing of nicotine
[1]; number of events among NP002 patients
  adverse events reported: 45
[1]; of 35 randomized
  Primary reason for study discontinuation: Adverse event: 6 (17.1) n (%)
  Primary reason for study discontinuation: Protocol violation: 2 (5.7) n (%)
  Subjects who completed study per protocol: 25 (71.4) n (%)
  Subjects who discontinued the study: 10 (28.6) n (%)
  subjects who completed the study: 25 subjects
  subjects who withdrew because of AEs: 6 subjects
  subjects who withdrew because of protocol violations: 2 subjects
  subjects who withdrew from the study: 10 subjects
[1]; subject going on vacation, of 35 randomized
  Primary reason for study discontinuation: Other: 2 (5.7) n (%)
[1]; treated subjects with any adverse events with action taken = reduced/discontinued study drug, of 35 randomized
  Subjects who required dose reduction or discontinuation of study treatment: 7 (20.0) n (%)
[2]; 10 weeks
  UPDRS Part II (ADL) and Part III (Motor Examination) after treatment, NP002 vs placebo: no significant differences
[2]; Baseline to Week 10, 5-point scale, minus = improvement, 30 NP002 patients
  Falls (UPDRS Part II Question 13), number of patients with change -3: 1
[2]; [5]
  FOG (UPDRS Part II Question 14), number of patients with No Change: 17
  FOG (UPDRS Part II Question 14), number of patients with change +2: 0
  FOG (UPDRS Part II Question 14), number of patients with change +3: 0
  FOG (UPDRS Part II Question 14), number of patients with change -1: 10
  FOG (UPDRS Part II Question 14), number of patients with change -2: 2
  Falls (UPDRS Part II Question 13), number of patients with No Change: 16
  Falls (UPDRS Part II Question 13), number of patients with change +2: 0
  Falls (UPDRS Part II Question 13), number of patients with change +3: 0
  Falls (UPDRS Part II Question 13), number of patients with change -1: 7
  Falls (UPDRS Part II Question 13), number of patients with change -2: 5
  Pull Test (Item 30 of the UPDRS Part III), number of patients with No Change: 19
  Pull Test (Item 30 of the UPDRS Part III), number of patients with change +2: 0
  Pull Test (Item 30 of the UPDRS Part III), number of patients with change +3: 0
  Pull Test (Item 30 of the UPDRS Part III), number of patients with change -1: 5
  Pull Test (Item 30 of the UPDRS Part III), number of patients with change -2: 5
[2]; [6]
  FOG (UPDRS Part II Question 14), number of patients with change -3: 0
  Pull Test (Item 30 of the UPDRS Part III), number of patients with change -3: 0
[2]; [7]
  FOG (UPDRS Part II Question 14), number of patients with change +1: 1
  Falls (UPDRS Part II Question 13), number of patients with change +1: 1
  Pull Test (Item 30 of the UPDRS Part III), number of patients with change +1: 1
[2]; Fourteen of 30 NP002 patients, p=0.00857 vs placebo
  patients with a reduction in falls: 47%
[2]; [8]
  Total Score UDysRS: 51.7 +/-16.9
  UDysRS Evaluation of Dyskinesias on 7 Body Parts: 13.5 +/-5.4
  UDysRS Evaluation of Dyskinesias on Ambulation: 9.5 +/- 6.0
  UDysRS Evaluation of Dyskinesias on Communication: 10.5 +/-4.8
  UDysRS Evaluation of Dyskinesias on Dressing: 11.3 +/-6.2
  UDysRS Evaluation of Dyskinesias on Drinking: 9.1 +/- 5.6
[2]; NP002 Patients Week 10
  Total Score UDysRS: 36.4 +/-16.1
  UDysRS Evaluation of Dyskinesias on 7 Body Parts: 8.5 +/- 5.4
  UDysRS Evaluation of Dyskinesias on Ambulation: 5.1 +/- 5.3
  UDysRS Evaluation of Dyskinesias on Communication: 7.0 +/- 5.0
  UDysRS Evaluation of Dyskinesias on Dressing: 6.9 +/- 5.5
  UDysRS Evaluation of Dyskinesias on Drinking: 5.3 +/- 5.0
[2]; [9]
  UPDRS II: 10.1 ± 5.3
  UPDRS III: 17.3 ± 10.6
[2]; [10]
  UPDRS II: 13.1 ± 6.0
  UPDRS III: 20.0 ± 8.8
[2]; NP002 versus Placebo, p-value 0.337
  Difference in LS Means 95% Confidence Interval, UPDRS Part III: -18.3 ± 1.8 (-5.8, 2.0)
[2]; NP002 versus Placebo, p-value 0.631
  Difference in LS Means 95% Confidence Interval, UPDRS Part II: 10.1 ± 0.96 (-3.2, 2.0)
[2]; NP002 vs placebo, p-value 0.011*
  UDysRS Evaluation of Dyskinesias on Ambulation, Difference LS Means: -3.7 +/-1.9
[2]; NP002 vs placebo, p-value 0.062
  UDysRS Evaluation of Dyskinesias on 7 Body Parts, Difference LS Means: -2.8 +/-2.6
[2]; NP002 vs placebo, p-value 0.092
  Total Score UDysRS, Difference LS Means: -6.7 +/-4.1
[2]; NP002 vs placebo, p-value 0.139
  UDysRS Evaluation of Dyskinesias on Dressing, Difference LS Means: -2.1 +/-1.4
[2]; NP002 vs placebo, p-value 0.171
  UDysRS Evaluation of Dyskinesias on Drinking, Difference LS Means: -2.4 +/-1.7
[2]; NP002 vs placebo, p-value 0.189
  UDysRS Evaluation of Dyskinesias on Communication, Difference LS Means: -1.9 +/-1.4
[2]; Ten of 30 NP002 patients, p=0.0228 vs placebo
  patients with a reduction in retropulsion: 33.3%
[2]; Twelve of 30 NP002 patients, p=0.04301 vs placebo
  patients with a reduction in FOG: 40%
[2]; Visit 4 (Week 10), 21 responders, p = 0.0048 vs placebo
  PGI-C responders (subjects with a score of 1, 2, or 3): 77.8%
[2]; baseline to 10 weeks
  UPDRS II Change: 2.8 + 5.2
  UPDRS III Change: 2.0 + 7.5
[2]; human, in vivo
  patient- and physician-rated assessments of efficacy versus placebo: superior to placebo
  patients with either a reduction or absence of FOG during the active phase: ~73%
  patients with either a reduction or absence of falls during the active phase: ~87%
[2]; of 30 NP002 patients
  patients with no FOG during the study: 10
  patients with no falls during the study: 12
[2]; p=0.011 vs placebo
  reduction (improvement) in the effect of LIDs on ambulation, UDysRS ambulation subtest: 46%
[2]; p=0.092 vs placebo
  reduction in LIDs, Total UDysRS: 39%
[3]
  time by which the plasma concentration of nicotine returns close to baseline: ~ 6 hours
[4]
  Tmax: ~1.5 h
